Data reported in patent publication US20260199444A1, “VACCINES AGAINST PROTEIN TYROSINE PHOSPHATASE RECEPTOR TYPE Z1 (PTPRZ1) -POSITIVE TUMORS” (ALTEVAX, priority 2022, published 2026).

Columns and labels:
HLA-A2/DR1 mice [1] = experiment: Melanin-based vaccine (plus CpG-28) subcutaneous immunization, CD8 T-cell response by IFNg-SFC count of re-stimulated splenocytes; format: in vivo; details: for T-cell Immune response: mean +/− SEM (number of mice): peptide 10 μg/mouse with synthetic melanin (peptide/L-Dopa 1/4) and CpG-28 10 μg/mouse, subcutaneous, day 8, splenocytes re-stimulated with the corresponding MHC class I epitope; for immune response after immunization (in words): melanin-based vaccine, HLA-A2/DR1 mice
Description: For the purpose of selecting a relevant PTPRZ1 antigen to be used in human patients, several peptides containing various PTPRZ1 immune epitopes were screened. The immunogenicity of these various peptides were screened by vaccinations in HLA-A2/DR1 mice (also known as Surel1 model). HLA-A2/DR1 mice are transgenic mice mimicking the human's immune system. As a vaccine procedure for screening, a melanin-based vaccine was used, as described in WO2021165306.
Using a melanin-based vaccine in HLA-A2/DR1 mice, these epitopes were then screened using peptides (SEQ ID NO: 5 to SEQ ID NO: 8) containing the epitope and an additional cysteine at the NH2-terminal, as it was disclosed in WO2021165306 that this modification increases the efficacy of melanin-based vaccine.
For immunizations, L-Dopa (0.8 mg/ml) underwent an oxidative polymerization at pH 8.5 in aerobic conditions for 2 hours at 60° C. The reaction mixture was then filtered on a 10 kDa filter, and the retentate containing the synthetic melanin was resuspended in phosphate buffer. Peptides (10 μg/mouse) containing the epitopes (underlined) were then added (at the weight ratio peptide/L-Dopa=1/4) and the mixtures were used for subcutaneous immunizations in mice. Phosphorothioate oligonucleotide CpG-28 (5′-[…], SEQ ID NO: 16) was added to vaccine formulations (10 μg/mouse) just before the immunizations. Mice were sacrificed on day 8 and the CD8 T-cell response was performed as described in Carpentier; 2017. Briefly, splenocytes were re-stimulated in vitro with the corresponding MHC class I-epitope (non-conjugated to melanin) and the numbers of IFNg-SFCs (Spot forming cells) were measured and expressed as Mean+/−S.E.M.

HLA-A2/DR1 mice [2] = experiment: Peptide plus CpG-28 without melanin, subcutaneous immunization, CD8 T-cell response by IFNg-SFC count of re-stimulated splenocytes; format: in vivo; details: for T-cell Immune response: mean +/− SEM (number of mice): peptide 10 μg/mouse with CpG-28 10 μg/mouse, no melanin, subcutaneous, day 8, splenocytes re-stimulated with the corresponding MHC class I epitope
Method: In a different adjuvant formulation, SEQ ID NO: 4 and SEQ ID NO: 14 were studied in HLA-A2/DR1 mice.
The peptides (10 μg/mouse) were mixed with the TLR9 agonist CpG-28 (SEQ ID NO: 16) (10 μg/mouse) and the mixtures were used for subcutaneous immunizations in mice. Mice were sacrificed on day 8 and the CD8 T-cell response was performed as described in Carpentier; 2017. Briefly, splenocytes were re-stimulated in vitro with the corresponding MHC class I-epitope (non-conjugated to melanin) and the numbers of IFNg-SFCs (Spot forming cells) were measured and expressed as Mean+/−S.E.M.

patients = details: glioblastoma patients, Hilf et al (2019); cited from earlier work
transgenic SURE mice = experiment: Cross reactivity of T-cell responses after immunization with SEQ 14, splenocytes re-stimulated with SEQ 14 or native epitope SEQ 4; format: in vivo; details: immunized with SEQ ID NO: 14, day 8, re-stimulation 18 hours, 5 μg/ml to 0.3 ng/ml, FIG. 1
Method: FIG. 1: cross reactivity of T-cell responses obtained after immunizations with SEQ 14 in transgenic SURE mice. Mice were immunized against SEQ 14, as described in table 1, and sacrificed on day 8. The splenocytes (5.10^5 cells/well) were re-stimulated in vitro for 18 hours with either SEQ 14 or the native epitope SEQ 4 (both non-conjugated to melanin), at various concentrations (5 μg/ml to 0.3 ng/ml) and the numbers of IFNg-SFCs (Spot forming cells) were measured after a 18-hour incubation (representative experiments from 3 experiments)
Mice were thus immunized with SEQ ID NO: 14, and it was checked whether T-cell response triggered by SEQ ID NO: 14 was able to similarly recognize the mutated epitote SEQ ID NO: 15 and the native epitope SEQ ID NO: 4.

Substance	T-cell Immune response: mean +/− SEM (number of mice) (HLA-A2/DR1 mice [1])	other results
P MIWEHNVEV (PMIWEHNVEV) [SEQ ID NO: 10]	40 +/− 15 (n = 7) IFNg-SFCs	–
CKVFAGIPTV [SEQ ID NO: 5]	288 +/− 37 (n = 8) IFNg-SFCs	immune response after immunization (in words) (HLA-A2/DR1 mice [1]): powerful immune response
CVLDSHIHAYVNALLIPGPAGK [SEQ ID NO: 6]	7 +/− 5 (n = 4) IFNg-SFCs	–
PK MIWEHNVEV (PKMIWEHNVEV) [SEQ ID NO: 12]	61 +/− 30 (n = 7) IFNg-SFCs	–
C MIWEHNVEV (CMIWEHNVEV) [SEQ ID NO: 8]	24 +/− 8 (n = 8) IFNg-SFCs	immune response after immunization (in words) (HLA-A2/DR1 mice [1]): able to trigger an immune response; immune response after immunization (in words) (HLA-A2/DR1 mice [1]; listed as SEQ 8): weak
H MIWEHNVEV (HMIWEHNVEV) [SEQ ID NO: 11]	60 +/− 25 (n = 7) IFNg-SFCs	–
KP MIWEHNVEV (KPMIWEHNVEV) [SEQ ID NO: 13]	80 +/− 34 (n = 7) IFNg-SFCs	–
MIWEHNVEV [SEQ ID NO: 4, reference compound]	3 +/− 1 (n = 7) IFNg-SFCs	T-cell Immune response: mean +/− SEM (number of mice) (HLA-A2/DR1 mice [2]): 11 +/− 4 (n = 7) IFNg-SFCs; reactive CD8+ T cells against the peptide after immunization of patients (patients): found in some patients
KK KIWEHNVEV (KKKIWEHNVEV) [SEQ ID NO: 14]	287 +/− 26 (n = 8) IFNg-SFCs	T-cell Immune response: mean +/− SEM (number of mice) (HLA-A2/DR1 mice [2]): 25 +/− 13 (n = 7) IFNg-SFCs; CD8 immune response after immunization without melanin (in words) (HLA-A2/DR1 mice [2]; peptide with CpG-28, no melanin, compared with SEQ ID NO: 4): more potent; reactivity against the native epitope (SEQ ID NO: 4) of lymphocytes primed with the modified epitope, compared with reactivity against the modified epitope (transgenic SURE mice): even higher; immune response after immunization (in words) (HLA-A2/DR1 mice [1]): strong CD8 immune response
C AIIDGVESV (CAIIDGVESV) [SEQ ID NO: 7]	3 +/− 1 (n = 4) IFNg-SFCs	–
KIWEHNVEV [SEQ ID NO: 15]	118 +/− 26 (n = 7) IFNg-SFCs	–
